Experimental data reported in PubChem BioAssay AID2060346 (Molecular Pharmacology Branch, DTP, NCI, 2025).

Test system: CN0375-F725-PDC multi-cell spheroids, viability
Assay: Anticancer human tumor CN0375-F725-PDC patient-derived colon carcinoma cell line growth inhibition [TAK]
Conditions: for IC50: curve of first compound; for viability, T/C: stronger effect = lower value
Outline: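 Drug combinations, each paired with TAK-243 or ipatasertib, were tested on multi-cell spheroids of 60% malignant cells, 25% HUVEC and 15% hMSC. Top concentrations were at or near the clinical Cmax (10 microM if undetermined), decreasing by half-log; viability is given as % test/control.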

[1] = second compound 0.3 µM, first compound 0.0316 µM
[2] = second compound 0.3 µM, first compound 0.1 µM
[3] = second compound 0.3 µM, first compound 0.316 µM
[4] = second compound 0.3 µM, first compound 1 µM
[5] = second compound 0.949 µM, first compound 0.0316 µM
[6] = second compound 0.949 µM, first compound 0.1 µM
[7] = second compound 0.949 µM, first compound 0.316 µM
[8] = second compound 0.949 µM, first compound 1 µM
[9] = second compound 3 µM, first compound 0.0316 µM
[10] = second compound 3 µM, first compound 0.1 µM
[11] = second compound 3 µM, first compound 0.316 µM
[12] = second compound 3 µM, first compound 1 µM
[13] = second compound 9.49 µM, first compound 0.0316 µM
[14] = second compound 9.49 µM, first compound 0.1 µM
[15] = second compound 9.49 µM, first compound 0.316 µM
[16] = second compound 9.49 µM, first compound 1 µM
[17] = second compound 30 µM, first compound 0.0316 µM
[18] = second compound 30 µM, first compound 0.1 µM
[19] = second compound 30 µM, first compound 0.316 µM
[20] = second compound 30 µM, first compound 1 µM
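Further: spheroids exposed to drugs for seven days.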
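Wherever viability, T/C is given: 100% = DMSO vehicle control wells.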

Compound	IC50 (second compound 0.3 µM) [nM]	IC50 (second compound 0.949 µM) [nM]	IC50 (second compound 3 µM) [nM]	IC50 (second compound 9.49 µM) [nM]	IC50 (second compound 30 µM) [nM]	viability, T/C [1] [%]	viability, T/C [2] [%]	viability, T/C [3] [%]	viability, T/C [4] [%]	viability, T/C [5] [%]	viability, T/C [6] [%]	viability, T/C [7] [%]	viability, T/C [8] [%]	viability, T/C [9] [%]	viability, T/C [10] [%]	viability, T/C [11] [%]	viability, T/C [12] [%]	viability, T/C [13] [%]	viability, T/C [14] [%]	viability, T/C [15] [%]	further results
COc1c(OCCCN2CCOCC2)ccc2c3n(c(=NC(=O)c4cnc(N)nc4)nc12)CCN3 + CC(C)NCC(C(=O)N1CCN(c2ncnc3c2C(C)CC3O)CC1)c1ccc(Cl)cc1	247	211	206	154	84.3	81.1	61.7	45.6	34.7	80.1	61.3	42.7	37.6	78.5	60.4	41.9	33	69.9	55.5	40.4	viability, T/C (second compound 0.3 µM, first compound 0.00316 µM): 103%; viability, T/C (second compound 0.3 µM, first compound 0.01 µM): 88.3%; viability, T/C (second compound 0.949 µM, first compound 0.00316 µM): 100%; viability, T/C (second compound 0.949 µM, first compound 0.01 µM): 91.8%; viability, T/C (second compound 3 µM, first compound 0.00316 µM): 98.8%; viability, T/C (second compound 3 µM, first compound 0.01 µM): 83.1%; viability, T/C (second compound 9.49 µM, first compound 0.00316 µM): 92.7%; viability, T/C (second compound 9.49 µM, first compound 0.01 µM): 80.2%; viability, T/C [16]: 34.8%; viability, T/C (second compound 30 µM, first compound 0.00316 µM): 76.2%; viability, T/C (second compound 30 µM, first compound 0.01 µM): 70.5%; viability, T/C [17]: 62%; viability, T/C [18]: 47.8%; viability, T/C [19]: 37.5%; viability, T/C [20]: 32.6%
Cc1nc(NC(=O)N2CCCC2C(N)=O)sc1-c1ccnc(C(C)(C)C(F)(F)F)c1 (stereo not given) + CC(C)NCC(C(=O)N1CCN(c2ncnc3c2C(C)CC3O)CC1)c1ccc(Cl)cc1	> 10000	> 10000	> 10000	9460	4990	102	95.6	89.5	82.1	101	97.7	94.4	88.7	98.6	98.4	86.7	81.8	89.4	94.5	88.1	viability, T/C (second compound 0.3 µM, first compound 3.16 µM): 74.4%; viability, T/C (second compound 0.3 µM, first compound 10 µM): 52.5%; viability, T/C (second compound 0.949 µM, first compound 3.16 µM): 74.3%; viability, T/C (second compound 0.949 µM, first compound 10 µM): 57.9%; viability, T/C (second compound 3 µM, first compound 3.16 µM): 71.7%; viability, T/C (second compound 3 µM, first compound 10 µM): 51.6%; viability, T/C [16]: 79.5%; viability, T/C (second compound 9.49 µM, first compound 3.16 µM): 66.7%; viability, T/C (second compound 9.49 µM, first compound 10 µM): 49%; viability, T/C [17]: 80%; viability, T/C [18]: 82%; viability, T/C [19]: 71.7%; viability, T/C [20]: 67.4%; viability, T/C (second compound 30 µM, first compound 3.16 µM): 59.9%; viability, T/C (second compound 30 µM, first compound 10 µM): 37.9%
